According to patent US11352354B2, “Substituted penta-fused hexa-heterocyclic compounds, preparation method therefor, drug combination and use thereof” (Xiamen University, priority 2017, dated 2022):
Marks after values point to notes of the source that are not given here.

Columns and labels:
MDA-MB-231 cells = assay: Vacuolation of MDA-MB-231 cells caused by inhibition of compounds on PIKfyve (microscopy); format: cell-based; conditions: MDA-MB-231 cells
Source text: I. Determination of Vacuolation of MDA-MB-231 Cells Caused by Inhibition of Compounds on PIKfyve
When the activity of pikfyve kinase is inhibited, vacuoles will be produced in cytoplasm. By observing the number of vacuoles under a microscope, the ability of compounds to inhibit the activity of pikfyve kinase can be known.
1. Cell plating: cells in logarithmic growth phase were made into a single cell suspension, counted with a cell counter and diluted to a cell concentration of about 2×10^5/mL. Then, the cells were inoculated into a 12-well plate, and cultured in a 37° C., 5% CO2 incubator.
3. Vacuolation test: after 24 and 48 hours of culture, photos were taken under an […] to observe the degree of vacuolation.
(In the table, “+” represents the degree of vacuolation; more “+” indicates more obvious vacuolation; “−” represents no vacuolation)

JeKo-1 cells = assay: Tumor cell growth inhibition by MTS method, JeKo-1; format: cell-based; conditions: 5 days of culture; for inhibition at 10 µM / IC50: Homo sapiens, JeKo-1, 120 h; for inhibition at 10 µM: read-out: cell growth inhibition rate of compounds at 10 μM
Experimental: III. Determination of IC50 Value of Compound for Inhibiting Tumor Cell Growth by MTS Method
1. Cell plating: cells in logarithmic growth phase were counted and inoculated in a 96-well plate (20000 cells per well).
2. Administrating agent to cell: 10 mM compound mother solution in DMSO was subjected to 3 fold-gradient dilution, to set 8 concentrations, which were then added to various wells, with three replicates for each concentration, and three blank wells (only culture medium) and three negative controls (containing 0.1% DMSO) on each plate.
3. […] The OD value at 490 nm was measured with microplate reader OD490. The cell growth inhibition rate was calculated by the following formula: Cell growth inhibition rate %=1−(ODexperimental group−ODblank group)/(ODnegative group−ODblank group)×100%
The semi-inhibitory concentration IC50 of the compound acting on cell growth was calculated using GradPad Prism 5 software according to the measured cell growth inhibition rate.
In the following table it lists the IC50 value or the inhibition rates of some compounds at 10 μM against JeKo-1 cells

## Cc1ccc(C(=O)Nc2cccc(C(F)(F)F)c2)cc1Nc1nc(-c2cccnc2)nc2[nH]cnc12 [IV-a-3]
MDA-MB-231 cells
  degree of vacuolation, 1 μM, 48 h: +
  degree of vacuolation, 10 μM, 48 h: +
JeKo-1 cells; 10 μM
  inhibition at 10 µM: 16.2%

## Cc1ccc(C(=O)Nc2cccc(C(F)(F)F)c2)cc1Nc1cc(-c2ccncc2)nc2sccc12 [VIII-a-8]
MDA-MB-231 cells
  degree of vacuolation, 1 μM, 24 h: −
  degree of vacuolation, 1 μM, 48 h: ++
  degree of vacuolation, 10 μM, 24 h: −
  degree of vacuolation, 10 μM, 48 h: ++
JeKo-1 cells
  IC50: 2000 nM

## Cc1ccc(NC(=O)c2cccc(C(F)(F)F)c2)cc1Nc1nc(-c2cccnc2)nc2[nH]cnc12 [IV-a-1]
MDA-MB-231 cells
  degree of vacuolation, 1 μM, 24 h: +
  degree of vacuolation, 1 μM, 48 h: ++
  degree of vacuolation, 10 μM, 24 h: +
  degree of vacuolation, 10 μM, 48 h: ++
JeKo-1 cells; 10 μM
  inhibition at 10 µM: 18.3%

## Cc1ccc(C(=O)Nc2ccc(CN3CCN(C)CC3)c(C(F)(F)F)c2)cc1Nc1cc(-c2ccncc2)nc2[nH]ccc12 [I-a-25]
MDA-MB-231 cells
  degree of vacuolation, 1 μM, 24 h: +
  degree of vacuolation, 1 μM, 48 h: +
  degree of vacuolation, 10 μM, 24 h: +
  degree of vacuolation, 10 μM, 48 h: +
JeKo-1 cells
  IC50: 2130 nM

## Cc1ccc(NC(=O)c2cccc(C(F)(F)F)c2)cc1Nc1cc(-c2ccncc2)nc2c1ccn2C [I-b-2]
MDA-MB-231 cells
  degree of vacuolation, 1 μM, 24 h: −
  degree of vacuolation, 1 μM, 48 h: −
  degree of vacuolation, 10 μM, 24 h: ++
  degree of vacuolation, 10 μM, 48 h: ++
JeKo-1 cells
  IC50: 1600 nM

## Cc1ccc(NC(=O)c2cccc(C(F)(F)F)c2)cc1Nc1cc(-c2cccnc2)nc2sccc12 [VIII-a-3]
MDA-MB-231 cells
  degree of vacuolation, 1 μM, 24 h: ++
  degree of vacuolation, 1 μM, 48 h: ++
  degree of vacuolation, 10 μM, 24 h: ++
  degree of vacuolation, 10 μM, 48 h: ++
JeKo-1 cells
  IC50: 2010 nM

## Cc1ccc(Nc2nc(-c3cccc(NC(=O)c4ccc(N)nc4)c3)nc3ccsc23)nc1 [VII-a-17]
MDA-MB-231 cells
  degree of vacuolation, 1 μM, 24 h: −
  degree of vacuolation, 1 μM, 48 h: −
  degree of vacuolation, 10 μM, 24 h: −
  degree of vacuolation, 10 μM, 48 h: −
JeKo-1 cells
  IC50: 1150 nM

## Cc1ccc(C(=O)Nc2cccc(C(F)(F)F)c2)cc1Nc1nc(-c2cccnc2)cn2ccnc12 [VI-a-2]
MDA-MB-231 cells
  degree of vacuolation, 1 μM, 24 h: +
  degree of vacuolation, 1 μM, 48 h: +
  degree of vacuolation, 10 μM, 24 h: +
  degree of vacuolation, 10 μM, 48 h: +
JeKo-1 cells; 10 μM
  cell growth inhibition rate of compounds at 10 μM: 38.6%^a

## Cc1ccc(C(=O)Nc2cccc(C(F)(F)F)c2)cc1Nc1nc(-c2ccncc2)nc2ccn(C)c12 [V-b-4]
MDA-MB-231 cells
  degree of vacuolation, 1 μM, 24 h: ++
  degree of vacuolation, 1 μM, 48 h: ++
  degree of vacuolation, 10 μM, 24 h: ++
  degree of vacuolation, 10 μM, 48 h: ++
JeKo-1 cells; 10 μM
  inhibition at 10 µM: 17.2%

## Cn1ncc2c(NCc3cccnc3)nc(-c3cccc(NC(=S)Nc4cccc(C(F)(F)F)c4)c3)nc21 [III-b-15]
MDA-MB-231 cells
  degree of vacuolation, 1 μM, 24 h: −
  degree of vacuolation, 1 μM, 48 h: −
  degree of vacuolation, 10 μM, 24 h: +
  degree of vacuolation, 10 μM, 48 h: +
JeKo-1 cells; 10 μM
  inhibition at 10 µM: 24.1%

## Cc1ccc(NC(=O)c2cccc(C(F)(F)F)c2)cc1Nc1nc(-c2cccnc2)nc2c1ncn2C [IV-b-7]
MDA-MB-231 cells
  degree of vacuolation, 1 μM, 24 h: +
  degree of vacuolation, 1 μM, 48 h: +
  degree of vacuolation, 10 μM, 24 h: +
  degree of vacuolation, 10 μM, 48 h: +
JeKo-1 cells; 10 μM
  inhibition at 10 µM: 19.1%

## Cc1ccc(C(=O)Nc2cccc(C(F)(F)F)c2)cc1Nc1nc(-c2ccncc2)nc2[nH]ccc12 [II-a-4]
MDA-MB-231 cells
  degree of vacuolation, 1 μM, 24 h: −
  degree of vacuolation, 1 μM, 48 h: −
  degree of vacuolation, 10 μM, 24 h: +
  degree of vacuolation, 10 μM, 48 h: +
JeKo-1 cells; 10 μM
  inhibition at 10 µM: 18.7%

## Cc1ccc(C(=O)Nc2cccc(C(F)(F)F)c2)cc1Nc1cc(-c2cccnc2)nc2sccc12 [VIII-a-7]
MDA-MB-231 cells
  degree of vacuolation, 1 μM, 24 h: ++
  degree of vacuolation, 1 μM, 48 h: ++
  degree of vacuolation, 10 μM, 24 h: +++
  degree of vacuolation, 10 μM, 48 h: +++
JeKo-1 cells
  IC50: 3170 nM

## Cc1ccc(C(=O)Nc2cccc(C(F)(F)F)c2)cc1Nc1nc(-c2cccnc2)nc2[nH]ccc12 [II-a-2]
MDA-MB-231 cells
  degree of vacuolation, 1 μM, 24 h: +
  degree of vacuolation, 1 μM, 48 h: +
  degree of vacuolation, 10 μM, 24 h: +
  degree of vacuolation, 10 μM, 48 h: +
JeKo-1 cells; 10 μM
  inhibition at 10 µM: 43.4%

## Cc1ccc(NC(=O)c2cccc(C(F)(F)F)c2)cc1Nc1nc(-c2cccnc2)nc2ccn(C)c12 [V-b-1]
MDA-MB-231 cells
  degree of vacuolation, 1 μM, 24 h: ++
  degree of vacuolation, 1 μM, 48 h: ++
  degree of vacuolation, 10 μM, 24 h: ++
  degree of vacuolation, 10 μM, 48 h: ++
JeKo-1 cells; 10 μM
  inhibition at 10 µM: 12.3%

## Cc1ccc(NC(=O)c2cccc(C(F)(F)F)c2)cc1Nc1nc(-c2cccnc2)cn2c(Br)cnc12 [VI-b-1]
JeKo-1 cells; 10 μM
  inhibition at 10 µM: 17.5%

## Cc1ccc(C(=O)Nc2cccc(C(F)(F)F)c2)cc1Nc1nc(-c2cccnc2)cn2c(Br)cnc12 [VI-b-2]
JeKo-1 cells; 10 μM
  inhibition at 10 µM: 14.7%

## Cc1ccc(C(=O)Nc2cccc(F)c2)cc1Nc1nc(-c2cccnc2)cn2c(Br)cnc12 [VI-b-5]
JeKo-1 cells; 10 μM
  inhibition at 10 µM: 16.9%

## Cc1ccc(C(=O)Nc2cc(C(F)(F)F)cc(C(F)(F)F)c2)cc1Nc1cc(-c2cccnc2)nc2[nH]ccc12 [I-a-31]
MDA-MB-231 cells
  degree of vacuolation, 1 μM, 24 h: −
  degree of vacuolation, 1 μM, 48 h: −
  degree of vacuolation, 10 μM, 24 h: −
  degree of vacuolation, 10 μM, 48 h: −

## Cc1ccc(NC(=O)c2cccc(C(F)(F)F)c2)cc1Nc1nc(-c2cccnc2)cn2ccnc12 [VI-a-1]
JeKo-1 cells
  IC50: 7490 nM

## Cc1ccc(NC(=O)c2cccc(C(F)(F)F)c2)cc1Nc1cc(-c2ccncc2)nc2[nH]ccc12 [I-a-10]
MDA-MB-231 cells
  degree of vacuolation, 1 μM, 24 h: −
  degree of vacuolation, 1 μM, 48 h: −
  degree of vacuolation, 10 μM, 24 h: ++
  degree of vacuolation, 10 μM, 48 h: ++

## O=C(Nc1cccc(C(F)(F)F)c1)c1cccc(Nc2nc(-c3cccnc3)nc3cc[nH]c23)c1 [V-a-1]
MDA-MB-231 cells
  degree of vacuolation, 1 μM, 24 h: −
  degree of vacuolation, 1 μM, 48 h: −
  degree of vacuolation, 10 μM, 24 h: +
  degree of vacuolation, 10 μM, 48 h: +

## Cc1ccc(C(=O)Nc2cccc(C(F)(F)F)c2)cc1Nc1nc(-c2cccnc2)c2cnn(C)c2n1 [III-c-1]
JeKo-1 cells
  IC50: 2000 nM

## Cc1ccc(NC(=O)c2cccc(C(F)(F)F)c2)cc1Nc1nc(-c2cccnc2)cn2ccnc12 [VI-a-5]
MDA-MB-231 cells
  degree of vacuolation, 1 μM, 24 h: −
  degree of vacuolation, 1 μM, 48 h: +
  degree of vacuolation, 10 μM, 24 h: −
  degree of vacuolation, 10 μM, 48 h: +

## Cc1ccc(NC(=S)Nc2cccc(C(F)(F)F)c2)cc1Nc1cc(-c2cccnc2)nc2[nH]ccc12 [I-a-40]
MDA-MB-231 cells
  degree of vacuolation, 1 μM, 24 h: +
  degree of vacuolation, 1 μM, 48 h: +
  degree of vacuolation, 10 μM, 24 h: +
  degree of vacuolation, 10 μM, 48 h: +

## O=C(Nc1cccc(C(F)(F)F)c1)c1ccc(F)c(Nc2cc(-c3cccnc3)nc3[nH]ccc23)c1 [I-a-38]
MDA-MB-231 cells
  degree of vacuolation, 1 μM, 24 h: +
  degree of vacuolation, 1 μM, 48 h: +
  degree of vacuolation, 10 μM, 24 h: ++
  degree of vacuolation, 10 μM, 48 h: ++

## Cc1ccc(C(=O)Nc2cccc(OC(F)(F)F)c2)cc1Nc1nc(-c2cccnc2)cn2c(Br)cnc12 [VI-b-4]
MDA-MB-231 cells
  degree of vacuolation, 1 μM, 24 h: −
  degree of vacuolation, 1 μM, 48 h: −
  degree of vacuolation, 10 μM, 24 h: +
  degree of vacuolation, 10 μM, 48 h: +

## COc1ccc(Br)cc1NC(=O)Nc1cccc(-c2nc(NCc3cccnc3)c3c(ccn3C)n2)c1 [V-b-29]
MDA-MB-231 cells
  degree of vacuolation, 1 μM, 24 h: +
  degree of vacuolation, 1 μM, 48 h: −
  degree of vacuolation, 10 μM, 24 h: −
  degree of vacuolation, 10 μM, 48 h: −
